Measured values as given in patent publication US5985822A, “Inhibition of glial cell proliferation with N-CAM homophilic peptides” (The Scripps Research Institute, priority 1995, dated 1999).
Read-outs that look alike come from different tables or passages of the source.

Tests used:
N-CAM = experiment: Levels of N-CAM expression in astrocytes by Western blotting (antisense experiments); format: cell-based, rat; conditions: oligonucleotide added for 48 hours
Experimental: The amounts of N-CAM present in astrocytes were quantified by Western blotting. Cultures were grown as described and cellular material was lysed in buffer (phosphate buffered saline, pH 7.4, containing 0.5% NP-40, 350 μg/ml PMSF, 2 μg/ml aprotinin, 0.5 μg/ml leupeptin, and 0.7 μg/ml pepstatin A) at 4° C. Standard Western blotting techniques were employed either using cell lysate directly or after N-CAM immunoprecipitation. [^125 I]-Immunolabeled N-CAM was estimated by densitometry on a Molecular Dynamics PhosporImager using ImageQuant software.
[…]. After deprotection, the oligonucleotides were purified using HPLC, ethanol precipitated, solubilized in distilled water and added to the culture medium at the indicated concentrations.

[1] = test system: rat forebrain astrocytes in primary culture; experiment: Astrocyte proliferation assay ([3H]-thymidine incorporation normalized to [35S]-methionine); format: cell-based; conditions: for effect of oligonucleotide preincubation on inhibition of proliferation by N-CAM: 200 nM oligonucleotide 48 hours before 2 μg/ml N-CAM; for effect of oligonucleotide alone on proliferation: 200 nM, no N-CAM added; for effect of drug on the ability of N-CAM to inhibit astrocyte proliferation (in words): drug in the presence of N-CAM; for Drug Alone: means of triplicate (Table 5)
Experimental: Primary cultures of astrocytes were prepared from the forebrains of 4-5 day old neonatal rats. After decapitation and removal of the forebrains from the skull, the meninges were carefully peeled off, and forebrain tissue was triturated in sterile phosphate buffered saline (PBS) using firepolished pipettes. The resulting suspension of tissue fragments was incubated in Hank's balanced salt solution (Gibco BRL) with 2.5 mg/ml trypsin, 1 mM EDTA and 0.1 mg/ml DNase (Boehringer) at 37° C. for 15 minutes. […] The pellet was resuspended in serum free medium (SFM) consisting of Dulbecco's Modified Eagle Medium (D-MEM), 2 mM L-glutamine, 50 U/ml penicillin G sodium and 50 μg/ml streptomycin sulfate (all from Gibco BRL) supplemented by 10% (vol/vol) fetal bovine serum (FBS). The cells were transferred to a standard 100 mm tissue culture dish (Falcon) and incubated at 37° C. for 1-2 hours. After mild shaking, the supernatant containing unattached cells was transferred to a 100 mm collagen-coated dish. […] Cell samples were checked regularly for the expression of GFAP, a marker for astrocytes.
After cell attachment, the culture medium was exchanged for SFM. In antisense experiments, oligonucleotides were added at the same time (T=0). […] After another 12 hours (at T=60), [^3 H]-thymidine (New England Nuclear, 20 Ci/mmol) was added (0.38 μM, 10 μCi/ml). Following an additional 12 hours (T=72), the wells were drained, counts precipitated by ice-cold […] trichloroacetic acid, and the plates left to dry. Counts were solubilized overnight by adding 100 μl 1 N KOH to each well, neutralized with 100 μl 1 N HCl, transferred to liquid scintillation vials and counted in 3 ml of Beckman Ready Safe liquid scintillation cocktail on a Packard 1600 TR counter. […] In this paper, proliferation is expressed as [^3 H]-thymidine incorporation normalized to [35]-methionine incorporation and calculated as [^3 H] dpm/ [35] dpm.

Molecule: 5'-AGAUCCUUAG WUCGCAGCAUUGUA-3' (antisense AGAUCCUUAGUUCGCAGCAUUGUA; phosphorothioate linkages, further chemistry not given here) [N-CAM antisense RNA, phosphorothioate oligoribonucleotide complementary to position 205 to 228 of rat N-CAM]
- effect on N-CAM expression (in words) (N-CAM): significantly reduced N-CAM expression
- effect of oligonucleotide preincubation on inhibition of proliferation by N-CAM [1]: weaker inhibitory effect of N-CAM on proliferation
- effect of oligonucleotide alone on proliferation [1]: no effect on proliferation

Molecule: 5'-GUCCAUGUACAUCUAGUCAGUUGA-3 (chemistry not given here) [random antisense RNA]
- effect on N-CAM expression (in words) (N-CAM): no effect on N-CAM expression
- N-CAM level (sum of all molecular forms, mostly 140 kD and 120 kD) (N-CAM; mean ± S.E.M. (n)): 87 ± 18 % Control
- effect of oligonucleotide preincubation on inhibition of proliferation by N-CAM [1]: no such effect
- effect of oligonucleotide alone on proliferation [1]: no effect on proliferation

Molecule: CCCCC/C=C\C/C=C\C/C=C\C/C=C\CCCC(=O)O [Arachidonic Acid, arachidonic acid]
- [3H]-thymidine incorporation, Drug + N-CAM ([1]; drug 10 μM plus N-CAM 2 μg/ml): 60 ± 12 % SFM Ctrl
- [3H]-thymidine incorporation, Drug alone ([1]; drug 10 μM, 2×10^5 cells/ml): 107 ± 10 % SFM Ctrl
- effect of drug on the ability of N-CAM to inhibit astrocyte proliferation (in words) [1]: had no effect on the ability of N-CAM to inhibit astrocyte proliferation

Molecule: C=C[C@@]1(C)CC(=O)[C@]2(O)[C@@]3(C)[C@@H](O)CCC(C)(C)[C@@H]3[C@H](O)[C@H](OC(C)=O)[C@@]2(C)O1 [Forskolin, forskolin]
- [3H]-thymidine incorporation, Drug alone ([1]; drug 1 μM, 2×10^5 cells/ml): 73 ± 2 % SFM Ctrl
- [3H]-thymidine incorporation, Drug alone ([1]; drug 10 μM, 2×10^5 cells/ml): 32 ± 6 % SFM Ctrl
- effect of drug on astrocyte proliferation (in words) ([1]; drug alone, astrocyte cultures): blocks proliferation of astrocytes in culture

Molecule: C[C@]12O[C@H](C[C@]1(O)C(=O)O)n1c3ccccc3c3c4c(c5c6ccccc6n2c5c31)CNC4=O [K252b]
- [3H]-thymidine incorporation, Drug + N-CAM ([1]; drug 100 nM plus N-CAM 2 μg/ml): 85 ± 5 % SFM Ctrl
- [3H]-thymidine incorporation, Drug alone ([1]; drug 100 nM, 2×10^5 cells/ml): 98 ± 17 % SFM Ctrl
- [3H]-thymidine incorporation, Drug + N-CAM ([1]; drug 200 nM plus N-CAM 2 μg/ml): 64 ± 1 % SFM Ctrl
- [3H]-thymidine incorporation, Drug alone ([1]; drug 200 nM, 2×10^5 cells/ml): 78 ± 15 % SFM Ctrl
- effect of drug on the ability of N-CAM to inhibit astrocyte proliferation (in words) [1]: allowed the astrocytes cells to grow normally

Molecule: COC(=O)C=Cc1cc(O)ccc1O [Methyl 2,5-dihydroxycinnamate, methyl 2,5-dihydroxycinnamate]
- Drug + Ig3 ([1]; drug 0.25 μg/ml plus Ig3 2 μg/ml (Table 5)): 59 % of SFM Control
- Drug + N-CAM ([1]; drug 0.25 μg/ml plus N-CAM 2 μg/ml (Table 5)): 60 % of SFM Control
- Drug Alone ([1]; drug 0.25 μg/ml, 2×10^5 cells/ml): 65 % of SFM Control

Molecule: CCCCCCCCCCCCCC(=O)O[C@@H]1[C@@H](C)[C@@]2(O)[C@@H](C=C(CO)C[C@]3(O)C(=O)C(C)=C[C@@H]23)[C@@H]2C(C)(C)[C@]12OC(C)=O [PMA]
- effect of drug on astrocyte proliferation (in words) [1]: strong mitogenic response
- [3H]-thymidine incorporation, Drug alone ([1]; drug 10 nM, 2×10^5 cells/ml): 138 ± 16 % SFM Ctrl
- [3H]-thymidine incorporation, Drug + N-CAM ([1]; drug 100 nM plus N-CAM 2 μg/ml): 228 % SFM Ctrl
- [3H]-thymidine incorporation, Drug alone ([1]; drug 100 nM, 2×10^5 cells/ml): 268 ± 34 % SFM Ctrl

Molecule: Pertussis Toxin
- effect of drug on astrocyte proliferation (in words) [1]: slightly inhibited astrocyte proliferation
- [3H]-thymidine incorporation, Drug + N-CAM ([1]; drug 1 μg/ml plus N-CAM 2 μg/ml): 57 ± 13 % SFM Ctrl
- [3H]-thymidine incorporation, Drug alone ([1]; drug 1 μg/ml, 2×10^5 cells/ml): 67 ± 13 % SFM Ctrl
- [3H]-thymidine incorporation, Drug + N-CAM ([1]; drug .5 μg/ml plus N-CAM 2 μg/ml): 53 ± 9 % SFM Ctrl
- [3H]-thymidine incorporation, Drug alone ([1]; drug .5 μg/ml, 2×10^5 cells/ml): 74 ± 20 % SFM Ctrl
- effect of drug on the ability of N-CAM to inhibit astrocyte proliferation (in words) [1]: N-CAM was still able to inhibit proliferation

Molecule: bFGF: basic fibroblast growth factor, Upstate Biotechnology Incorporated
- proliferation as compared to cultures in SFM ([1]; 20 ng/ml bFGF, n=12): 347±56%

Molecule: calphostin C
- effect of drug on astrocyte proliferation (in words) [1]: inhibits proliferation
- [3H]-thymidine incorporation, Drug alone ([1]; drug 0.1 μM, 2×10^5 cells/ml): 111 ± 35 % SFM Ctrl
- [3H]-thymidine incorporation, Drug alone ([1]; drug 0.5 μM, 2×10^5 cells/ml): 54 ± 35 % SFM Ctrl

Molecule: mastoparan
- effect of drug on astrocyte proliferation (in words) [1]: stimulated astrocyte proliferation
- Drug + Ig3 ([1]; drug 50 μM plus Ig3 2 μg/ml (Table 5)): 192.5 % of SFM Control
- [3H]-thymidine incorporation, Drug + N-CAM ([1]; drug 50 μM plus N-CAM 2 μg/ml (Table 4)): 205 ± 30 % SFM Ctrl
- Drug + N-CAM ([1]; drug 50 μM plus N-CAM 2 μg/ml (Table 5)): 202.5 % of SFM Control
- [3H]-thymidine incorporation, Drug alone ([1]; drug 50 μM, 2×10^5 cells/ml (Table 4)): 213 ± 47 % SFM Ctrl
- Drug Alone ([1]; drug 50 μM, 2×10^5 cells/ml): 210 % of SFM Control
- effect of drug on the ability of N-CAM to inhibit astrocyte proliferation (in words) [1]: not inhibited by the concentration of N-CAM used

B1: N-CAM purified from embryonic chick brain: N-CAM purified from embryonic chick brain, which binds to rodent N-CAM (protein, UniProt P13590 20-1091, looked up)
Neural cell adhesion molecule …: LQVDIVPSQGEISVGESKFFLCQVAGEAKYKDISWFSPNGEKLTPNQQRISVVRNDDFSSTLTIYNANIDDAGIYKCVVSSVEEGDSEATVNVKIFQKLMFKNAPTPQEFKEGDDAVIVCDVVSSLPPTIIWKHKGRDVMLKKDVRFIVLSNNYLQIRGIKKTDEGTYRCEGRILARGEINFKDIQVIVNVPPSVRARQSTMNATANLSQSVTLACDADGFPEPTMTWTKDGEPIEQEDNEEKYSFNYDGSELIIKKVDKSDEAEYICIAENKAGEQDATIHLKVFAKPKITYVENKTAMELEDQITLTCEASGDPIPSITWKTSTRNISNEEKTLDGRIVVRSHARVSSLTLKEIQYTDAGEYVCTASNTIGQDSQAMYLEVQYAPKLQGPVAVYTWEGNQVNITCEVFAYPSAVISWFRDGQLLPSSNYSNIKIYNTPSASYLEVTPDSENDFGNYNCTAVNRIGQESSEFILVQADTPSSPSIDRVEPYSSTARVEFDEPEATGGVPILKYKAEWRALGEGEWHSRLYDAKEANVEGTITISGLKPETTYSVRLSAVNGKGVGEISLPSDFKTQPVREPSAPKLEGQMGEDGNSIKVNVIKQDDGGSPIRHYLIKYKAKHSSEWKPEIRLPSGIDHVMLKSLDWNAEYEVYVIAENQQGKSKPAHYAFRTSAQPTVIPASTSPTSGLGTAAIVGILIVIFVLLLVAVDVTCYFLNKCGLLMCIAVNLCGKSGPGAKGKDMEEGKAAFSKDESKEPIVEVRTEEERTPNHDGGKHTEPNETTPLTEPEHTADTAATVEDMLPSVTTGTTNSDTITETFATAQNSPTSETTTLTSSIAPPATAIPDSNAMSPGQATPAKAGASPVSPPPPSSTPKVAPLVDLSDTPSSAPATNNLSSSVLSNQGAVLSPSTVANMAETSKAAAGNKSAAPTPANLTSPPAPSEPKQEVSSTKSPEKEAAQPSTVKSPTETAKNPSNPKSEAASGGTTNPSQNEDFKMDEGTFKTPDIDLAKDVFAALGTTTPASVASGQARELASSTADSSVPAAPAKTEKTPVEDKSEVQATEIRHLQQK
- effect on astrocyte proliferation (in words) ([1]; added to astrocyte cultures in SFM): also inhibited proliferation

B2: N-CAM treated with neuraminidase: purified N-CAM treated with neuraminidase to remove sialic acid (protein, UniProt P13596 20-858, looked up)
Neural cell adhesion molecule …: LQVDIVPSQGEISVGESKFFLCQVAGDAKDKDISWFSPNGEKLSPNQQRISVVWNDDDSSTLTIYNANIDDAGIYKCVVTAEDGTQSEATVNVKIFQKLMFKNAPTPQEFKEGEDAVIVCDVVSSLPPTIIWKHKGRDVILKKDVRFIVLSNNYLQIRGIKKTDEGTYRCEGRILARGEINFKDIQVIVNVPPTVQARQSIVNATANLGQSVTLVCDADGFPEPTMSWTKDGEPIENEEEDDEKHIFSDDSSELTIRNVDKNDEAEYVCIAENKAGEQDASIHLKVFAKPKITYVENQTAMELEEQVTLTCEASGDPIPSITWRTSTRNISSEEKASWTRPEKQETLDGHMVVRSHARVSSLTLKSIQYTDAGEYICTASNTIGQDSQSMYLEVQYAPKLQGPVAVYTWEGNQVNITCEVFAYPSATISWFRDGQLLPSSNYSNIKIYNTPSASYLEVTPDSENDFGNYNCTAVNRIGQESLEFILVQADTPSSPSIDRVEPYSSTAQVQFDEPEATGGVPILKYKAEWKSLGEEAWHSKWYDAKEANMEGIVTIMGLKPETRYAVRLAALNGKGLGEISAATEFKTQPVREPSAPKLEGQMGEDGNSIKVNLIKQDDGGSPIRHYLVKYRALASEWKPEIRLPSGSDHVMLKSLDWNAEYEVYVVAENQQGKSKAAHFVFRTSAQPTAIPANGSPTAGLSTGAIVGILIVIFVLLLVVMDITCYFLNKCGLLMCIAVNLCGKAGPGAKGKDMEEGKAAFSKDESKEPIVEVRTEEERTPNHDGGKHTEPNETTPLTEPEKGPVETKSEPQESEAKPAPTEVKTVPNEATQTKENESKA
modifications: desialylated by neuraminidase
notes: purified N-CAM treated with neuraminidase to remove sialic acid
- [3H]-thymidine incorporation vs. SFM control ([1]; 2 μg/ml, n=2): 24±4%
